Laboratory results taken from patent US8071549B2, “Compounds capable of affecting differentiation, proliferation, regeneration, plasticity and survival cells” (priority 2001, dated 2011).
Peptide text beside a SMILES is read from it.

Columns and labels:
[1] = system: hippocampal neurons; assay: Neurite outgrowth from hippocampal neurons; conditions: for neurite outgrowth in dose-response study: bell-shaped dose-response curve, 24 h
Procedure: Neurons were grown on Permanox plastic (Nunc, Denmark) for 24 h at a density 6250 cells/cm^2, at 37° C., 5% CO2 in Neurobasal medium containing 20 mM Hepes, 100 U/ml penicillin, 100 μg/ml streptomycin, 0.4% BSA supplemented with B27 (Gibco BRL, USA). After 24 h, cells were fixed with paraformaldehyde, stained with Coomassie Brilliant Blue R250 and analyzed.
To test this assumption, dissociated neurons from embryonic rat hippocampus were seeded on plastic and allowed to grow for 24 h in the presence of the below described compounds. Thereafter, cells were fixed with paraformaldehyde, stained with Coomassie Brilliant Blue R250 and the length of neurites was measured using a stereological approach (Rønn et al., 2000).
Peptides derived from the FG-lops of the neural cell adhesion molecules L1 and NCAM (third F3-module of L1 and first F3 module of NCAM) were prepared in different lengths, see FIG. 9a, and their effect on neurite outgrowth from primary hippocampal neurons were tested adding the various peptides in a concentration of 25 microM.

[2] = target: T1, FGF-receptor 1 (Homo sapiens, UniProt P11362); assay: FGF-receptor phosphorylation in transfected HEK293 cells (immunoblotting); type: cell-based; conditions: 25 μM, 20 min, HEK293 cells with His-tagged FGF-receptor 1
T1 construct: expressed in transfected cells; host or cells: HEK293, transient, PcDNA3.1(+) plasmid
T1 sequence (P11362 22-822): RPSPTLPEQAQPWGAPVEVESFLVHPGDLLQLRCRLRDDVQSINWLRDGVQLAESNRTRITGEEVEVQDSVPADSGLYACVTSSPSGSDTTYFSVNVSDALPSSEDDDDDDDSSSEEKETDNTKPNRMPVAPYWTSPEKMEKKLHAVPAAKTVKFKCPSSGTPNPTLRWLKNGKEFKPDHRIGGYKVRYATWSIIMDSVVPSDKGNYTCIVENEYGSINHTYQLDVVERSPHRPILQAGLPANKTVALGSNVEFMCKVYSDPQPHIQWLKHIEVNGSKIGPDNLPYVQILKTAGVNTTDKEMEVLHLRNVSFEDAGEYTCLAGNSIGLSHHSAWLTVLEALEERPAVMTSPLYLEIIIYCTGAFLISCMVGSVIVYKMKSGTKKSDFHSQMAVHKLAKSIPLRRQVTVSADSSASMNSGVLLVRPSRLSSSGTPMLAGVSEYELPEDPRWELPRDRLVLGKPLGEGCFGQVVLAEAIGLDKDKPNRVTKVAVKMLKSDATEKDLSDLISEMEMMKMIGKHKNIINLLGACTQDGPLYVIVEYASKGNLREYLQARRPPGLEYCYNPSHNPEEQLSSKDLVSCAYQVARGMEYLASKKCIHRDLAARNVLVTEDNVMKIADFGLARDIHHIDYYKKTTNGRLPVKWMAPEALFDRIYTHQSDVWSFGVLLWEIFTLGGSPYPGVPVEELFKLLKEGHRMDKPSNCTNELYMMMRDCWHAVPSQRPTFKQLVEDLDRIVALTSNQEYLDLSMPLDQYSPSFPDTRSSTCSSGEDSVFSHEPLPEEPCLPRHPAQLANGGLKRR
Procedure: Cells were grown in DMEM 1965 with 10% FCS, 100 U/ml penicillin, 100 μg/ml streptomycin and 58.4 g/l Glutamax. ˜0.8*10^6 cells were plated in 60 mm plates and cultured for 24 hrs before being transfected using LipofectAMIN PLUS™ reagent kit according to manufacturers instructions (Gibco BRL) with 0.2 μg PcDNA3.1(+) plasmid encoding a his-tagged (C-terminal hexa-histidine) version of FGFR-1. Cells were grown another 24 hrs in full medium, and then shifted to starving media (DMEM 1965 with 0.5% FCS) overnight.
FGFR-1 transfected cells, incubated with 50 μg/ml NCAM derived recombinant fIII.2 or FG-loop for 20 minutes or non-stimulated, were lysed in 8M urea in PBS with 1 mM orthovanadate. The FGFR-1 was purified from total lysate via the His-tag moiety on an IMAC column. […] Samples were added SDS-PAGE sample buffer and analysed by western blotting using anti-pentahis ab (#34660 Qiagen) or anti-phosphotyrosine ab (PY20) (#11120 Transduction Laboratories). Bands were visualised by chemilumiscense and density was measured using a GeneGnome from SynGene with a 16 bit camera.
Therefore, HEK293 cells were grown for 24 h on plastic plates, and subsequently transfected with a His-tagged version of the FGF-receptor 1 and cultured for another 24 h. […] The purified FGF-receptor 1 was then analyzed by immunoblotting using antibodies either to the His-tag or phosphotyrosine. […]

[3] = system: Cerebellar granule neurons; assay: Survival assay of cerebellar granule neurons in low potassium (MTS); type: cell-based, rat; conditions: 5 mM potassium, two days; for cells surviving, high potassium set at 100%: serum-free
Procedure: Cerebellar granule neurons (CGN) from 7-days old rats are grown for 7-8 days in the presence of high potassium (40 mM). Cells are washed twice with serum-free culture medium (basal Eagle's medium BME) containing low potassium (5 mM) and grown in serum-free medium supplemented with FGL peptide for two days. Cultures are assayed for cell survival (D'Mello et al., 1997; Villalba et al., 1997; Skaper et al., 1998) by measuring reduction of MTS. MTS is a novel tetrazolium compound (Promega, USA), which is bioreduced by cells into a formazan that is soluble in tissue culture medium. The absorbance of the formazan at 490 nm is measured directly from 96 well assay plates without additional processing. The conversion of MTS into the aqueous soluble formazan is accomplished by dehydrogenase enzymes found in metabolically active cells. The quantity of formazan product as measured by the amount of 490 nm absorbance is directly proportional to the number of living cells in culture (Yao and Cooper, 1995);

Nc1ncnc2c1ncn2[C@@H]1O[C@H](COP(=O)(O)OP(=O)(O)CP(=O)(O)O)[C@@H](O)[C@H]1O [AMP-PCP, reference compound]
inhibition of the neuritogenic effect of the F3 module ([1]; 5 μM second F3 module, inhibitor 0.4 or 1 mM): complete inhibition | effect on neurite outgrowth when added alone ([1]; 0.4 or 1 mM): did not have any effect

CC(C)[C@H](NC(=O)[C@H](Cc1ccc(O)cc1)NC(=O)[C@@H](NC(=O)[C@@H](N)CCC(=O)O)C(C)C)C(=O)N[C@H](C(=O)N[C@@H](C)C(=O)N[C@@H](CCC(=O)O)C(=O)N[C@@H](CC(N)=O)C(=O)N[C@@H](CCC(N)=O)C(=O)N[C@@H](CCC(N)=O)C(=O)NCC(=O)N[C@@H](CCCCN)C(=O)N[C@@H](CO)C(=O)N[C@@H](CCCCN)C(=O)N[C@@H](C)C(=O)O)C(C)C [FG loop peptide] (H-EVYVVAENQQGKSKA-OH)
increase of FGF-receptor phosphorylation compared to control cells [2]: approx. 100% | survival, % of the positive control ([3]; 250 microgram per ml, monomeric form): up to 90% | survival, result in words ([3]; dose-range 2-250 microgram per ml): statistically significant survival | inhibition of induced neurite outgrowth by an antibody against the FGF-receptor ([1]; 5 μM second F3 module or 50 μM FG loop peptide): complete inhibition | neurite outgrowth in dose-response study [1]: induced neurite outgrowth

AENQQGK [heptamer Ala 77-Lys 83]
stimulatory effect retained as compared to the entire (non-mutated) FG loop peptide ([1]; 50 μM peptide): approximately 50% | neurite outgrowth in dose-response study [1]: induced neurite outgrowth | neuritogenic efficiency compared with the extended form ([1]; dose-response study): less efficient than the extended form

AMKEDGR (listed as Homo sapiens)
neuritogenic potency (neurite outgrowth), result in words ([1]; 50 μM peptide): to the same extent as the similar seven amino acids from the second F3 module of NCAM

EVAVVAENQQGASAA (listed as Homo sapiens)
neuritogenic potency (neurite outgrowth), result in words ([1]; 50 μM peptide): retained its neuritogenic potency | stimulatory effect retained as compared to the entire (non-mutated) FG loop peptide ([1]; 50 μM peptide): about 60% | inhibition of the peptide's stimulatory effect by ATP ([1]; 50 μM peptide, ATP 0.4 or 1 mM): could no longer be inhibited by ATP

VAENQQGKS (listed as Homo sapiens) [nonamer Val 76-Ser 84]
stimulatory effect retained as compared to the entire (non-mutated) FG loop peptide ([1]; 50 μM peptide): approximately 50%

basic fibroblast growth factor: growth factor, natural ligand of the FGF-receptor, comparison in the survival assay [reference compound]
cells surviving, high potassium set at 100% [3]: ~60%

B1: brains-derived neurotrophic factor: neurotrophic factor used as comparison in the survival assay (protein, UniProt P23560 19-247, looked up)
Neurotrophic factor BDNF …: APMKEANIRGQGGLAYPGVRTHGTLESVNGPKAGSRGLTSLADTFEHVIEELLDEDQKVRPNEENNKDADLYTSRVMLSSQVPLEPPLLFLLEEYKNYLDAANMSMRVRRHSDPARRGELSVCDSISEWVTAADKKTAVDMSGGTVTVLEKVPVSKGQLKQYFYETKCNPMGYTKEGCRGIDKRHWNSQCRTTQSYVRALTMDSKKRIGWRFIRIDTSCVCTLTIKRGR
cells surviving, high potassium set at 100% [3]: ~60%
